In patent US8889826B2, “Peptide antibiotics and methods for making same” (priority 2004, dated 2014):

Legend:
[1] = system: Pseudomonas aeruginosa, ATCC 27853; experiment: MIC by serial twofold broth dilution, Pseudo; assay type: cell-based; design: unit not given here; conditions: Mueller Hinton broth
Description: (§1) The antibacterial activities of certain new compounds are indicated in Table 4 as their minimum inhibitory concentrations (MICs) against Escherichia coli, Staphylococcus aureus, and Pseudomonas aeruginosa. MICs can be determined by the conditions disclosed in Table 4, as well as in Jarolmen, H. et al., “Activity of Minocycline Against R-Factor Carrying Enterobacteriaceae,” Infectious Immunity, Vol. 1, No. 4, pp. 321-326, 1970, the disclosure of which is incorporated herein by reference.

[2] = system: Staphylococcus aureus Smith; experiment: MIC by serial twofold broth dilution, Staph; assay type: cell-based; design: unit not given here; conditions: Mueller Hinton broth
Description: as §1

[3] = system: Escherichia coli, ATCC #26; experiment: MIC by serial twofold broth dilution, E. coli; assay type: cell-based; design: unit not given here; conditions: Mueller Hinton broth
Description: as §1

[4] = human, in vivo; cited from earlier work

In the case of Colistin [reference compound], the “Pseudo MIC” value [1] is reported as 0.6, the “Staph MIC” value [2] is reported as greater than 20 and the “E. coli MIC” value [3] is reported as 0.6. The “neurotoxicity, overall incidence” value [4] was 7.3%.
For “Cyclohexylcarbamyl-[Ile^7]-Polymyxin Decapeptide [Compound 48]”, the “Pseudo MIC” value [1] was 0.6 and the “E. coli MIC” value [3] was 0.6.
With “N-(n-Decanoyl)phenylalanyl-colistin decapeptide [Compound 52]” the “Pseudo MIC” value [1] was 2.5, the “Staph MIC” value [2] was 2.5 and the “E. coli MIC” value [3] was 1.25.
In the case of “P-Toluenesulfonyl-Colistin decapeptide [Compound 53]”, the “Pseudo MIC” value [1] is reported as 0.6, the “Staph MIC” value [2] is reported as greater than 20 and the “E. coli MIC” value [3] is reported as 1.25.
With Polymyxin B1 [reference compound] the “Pseudo MIC” value [1] was 0.6, the “Staph MIC” value [2] was 10 and the “E. coli MIC” value [3] was 0.6.
For Polymyxin B [reference compound], the “Pseudo MIC” value [1] was 0.6, the “Staph MIC” value [2] was greater than 10 and the “E. coli MIC” value [3] was 0.6.
With “[Ile^7]-polymyxin B1 [reference compound]” the “Pseudo MIC” value [1] was 1.25, the “Staph MIC” value [2] was 20 and the “E. coli MIC” value [3] was 0.6.
For “n-Octylcarbamyl-colistin decapeptide [Compound 51]”, the “Pseudo MIC” value [1] was 0.6, the “Staph MIC” value [2] was 20 and the “E. coli MIC” value [3] was 1.25.
